Experimental data reported in patent publication US12564547B2, “Compositions, formulations, and methods for skin treatment” (Oddity Labs, LLC, priority 2022, dated 2026).

Test system: human dermal fibroblasts
Assay: Human dermal fibroblast cells (hDFC) proliferation, cell viability assay (CellTiter-Glo, manual cell counting); also: test concentration or dose not given here
Assay type: cell-based
Conditions: hDFCs proliferation; control is DMSO

Nn1c(SCC(=O)N2CCCCC2)nnc1-c1ccccc1 [I-2, 2-[(4-amino-5-phenyl-1,2,4-triazol-3-yl)sulfanyl]-1-piperidin-1-ylethanone]
Activity (Percent Increase Proliferation of hFDPCs (%)): B (increased proliferation of hFDPCs equals to or larger than 1% and less than 4%)

Cc1ccc(-c2nnc(SCC(=O)N3CCCC3)n2N)cc1 [I-3, 2-[[4-amino-5-(4-methylphenyl)-1,2,4-triazol-3-yl]sulfanyl]-1-pyrrolidin-1-ylethanone]
Activity (Percent Increase Proliferation of hFDPCs (%)): C (increased proliferation of hFDPCs equals to or larger than 4% and less than 8%)

Nn1c(SCC(=O)N2CCCC2)nnc1C1CCCCC1 [I-4, 2-[(4-amino-5-cyclohexyl-1,2,4-triazol-3-yl)sulfanyl]-1-pyrrolidin-1-ylethanone]
Activity (Percent Increase Proliferation of hFDPCs (%)): C (increased proliferation of hFDPCs equals to or larger than 4% and less than 8%)

CCn1c(SCC(=O)N2CCCCCC2)nnc1-c1ccncc1 [I-5, 1-(azepan-1-yl)-2-[(4-ethyl-5-pyridin-4-yl-1,2,4-triazol-3-yl)sulfanyl]ethanone]
Activity (Percent Increase Proliferation of hFDPCs (%)): C (increased proliferation of hFDPCs equals to or larger than 4% and less than 8%)

C=CCn1c(SCC(=O)N2CCCCC2)nnc1-c1ccncc1 [I-6, 1-piperidin-1-yl-2-[(4-prop-2-enyl-5-pyridin-4-yl-1,2,4-triazol-3-yl)sulfanyl]ethanone]
Activity (Percent Increase Proliferation of hFDPCs (%)): C (increased proliferation of hFDPCs equals to or larger than 4% and less than 8%)

Cn1c(SCC(=O)N2CCCCC2)nnc1-c1ccccc1 [I-7, 2-[(4-methyl-5-phenyl-1,2,4-triazol-3-yl)sulfanyl]-1-piperidin-1-ylethanone]
Activity (Percent Increase Proliferation of hFDPCs (%)): B (increased proliferation of hFDPCs equals to or larger than 1% and less than 4%)

CCCC(=O)NCc1ccc(OC)cc1 [II-2, N-[(4-methoxyphenyl)methyl]butanamide]
Activity (Percent Increase Proliferation of hFDPCs (%)): B (increased proliferation of hFDPCs equals to or larger than 1% and less than 4%)

CCN(CC)CC(=O)NC(C)c1ccccc1 (stereo not shown) [II-3, 2-(diethylamino)-N-(1-phenylethyl)acetamide]
Activity (Percent Increase Proliferation of hFDPCs (%)): A (increased proliferation of hFDPCs of less than 1%)

CCC(=O)NC(C)c1ccccc1 (stereo not shown) [II-4, N-(1-phenylethyl)propanamide]
Activity (Percent Increase Proliferation of hFDPCs (%)): C (increased proliferation of hFDPCs equals to or larger than 4% and less than 8%)

CC(C)CC(=O)NC(C)c1ccccc1 (stereo not shown) [II-5, 3-methyl-N-(1-phenylethyl)butanamide]
Activity (Percent Increase Proliferation of hFDPCs (%)): D (increased proliferation of hFDPCs equals to or larger than 8%)

COc1ccc(CCCNC(=O)C(C)C)cc1 [II-6, N-[3-(4-methoxyphenyl)propyl]-2-methylpropanamide]
Activity (Percent Increase Proliferation of hFDPCs (%)): C (increased proliferation of hFDPCs equals to or larger than 4% and less than 8%)

COc1ccc(CNC(=O)C(=O)NCCCn2ccnc2)cc1 [III-2, N-(3-imidazol-1-ylpropyl)-N′-[(4-methoxyphenyl)methyl]oxamide]
Activity (Percent Increase Proliferation of hFDPCs (%)): D (increased proliferation of hFDPCs equals to or larger than 8%)

COc1ccc(CNC(=O)C(=O)NC(C)c2ccccc2)cc1 (stereo not shown) [III-3, N-[(4-methoxyphenyl)methyl]-N′-(1-phenylethyl)oxamide]
Activity (Percent Increase Proliferation of hFDPCs (%)): B (increased proliferation of hFDPCs equals to or larger than 1% and less than 4%)

CC(NC(=O)C(=O)NC(C)c1ccccc1)c1ccccc1 (stereo not shown) [III-4, N,N′-bis(1-phenylethyl)oxamide]
Activity (Percent Increase Proliferation of hFDPCs (%)): B (increased proliferation of hFDPCs equals to or larger than 1% and less than 4%)

COc1ccc(C(=O)NC(C(=O)NC(C)Cn2ccnc2)C(C)C)cc1 (stereo not shown) [III-5, N-[1-(1-imidazol-1-ylpropan-2-ylamino)-3-methyl-1-oxobutan-2-yl]-4-methoxybenzamide]
Activity (Percent Increase Proliferation of hFDPCs (%)): B (increased proliferation of hFDPCs equals to or larger than 1% and less than 4%)

COCCNC(=O)c1ccc2[nH]c3c(c2c1)CCCC3 [IV-3, N-(2-methoxyethyl)-6,7,8,9-tetrahydro-5H-carbazole-3-carboxamide]
Activity (Percent Increase Proliferation of hFDPCs (%)): D (increased proliferation of hFDPCs equals to or larger than 8%)

CC(O)CNC(=O)c1ccc2[nH]c3c(c2c1)CCCC3 (stereo not shown) [IV-4, N-(2-hydroxypropyl)-6,7,8,9-tetrahydro-5H-carbazole-3-carboxamide]
Activity (Percent Increase Proliferation of hFDPCs (%)): C (increased proliferation of hFDPCs equals to or larger than 4% and less than 8%)

O=C(O)CN1CCC(NC(=O)C2CCCc3c2[nH]c2ccccc32)CC1 (stereo not shown) [IV-5, 2-[4-(2,3,4,9-tetrahydro-1H-carbazole-1-carbonylamino)piperidin-1-yl]acetic acid]
Activity (Percent Increase Proliferation of hFDPCs (%)): D (increased proliferation of hFDPCs equals to or larger than 8%)

O=C(O)CNC(=O)c1ccc2[nH]c3c(c2c1)CCCC3 [IV-6, 2-(6,7,8,9-tetrahydro-5H-carbazole-3-carbonylamino)acetic acid]
Activity (Percent Increase Proliferation of hFDPCs (%)): B (increased proliferation of hFDPCs equals to or larger than 1% and less than 4%)

CC1=C(/C=C/C(C)=C/C=C/C(C)=C/CO)C(C)(C)CCC1 [Retinol, reference compound]
Activity (Percent Increase Proliferation of hFDPCs (%)): B (increased proliferation of hFDPCs equals to or larger than 1% and less than 4%)

CN(C)CCCn1c(=O)[nH]c2ccccc2c1=O [V-2, 3-[3-(dimethylamino)propyl]-1H-quinazoline-2,4-dione]
Activity (Percent Increase Proliferation of hFDPCs (%)): A (increased proliferation of hFDPCs of less than 1%)

CN(C)CCn1c(=O)[nH]c2ccccc2c1=O [V-3, 3-[2-(dimethylamino)ethyl]-1H-quinazoline-2,4-dione]
Activity (Percent Increase Proliferation of hFDPCs (%)): A (increased proliferation of hFDPCs of less than 1%)

COC(=O)Cn1c(=O)[nH]c2ccccc2c1=O [V-4, methyl 2-(2,4-dioxo-1H-quinazolin-3-yl)acetate]
Activity (Percent Increase Proliferation of hFDPCs (%)): A (increased proliferation of hFDPCs of less than 1%)

COCCOCCCn1c(=O)[nH]c2ccccc2c1=O [V-5, 3-[3-(2-methoxyethoxy)propyl]-1H-quinazoline-2,4-dione]
Activity (Percent Increase Proliferation of hFDPCs (%)): D (increased proliferation of hFDPCs equals to or larger than 8%)

CC(NC(=O)CNC(=O)c1cccs1)c1ccccc1 (stereo not shown) [VI-1, N-[2-oxo-2-(1-phenylethylamino)ethyl]thiophene-2-carboxamide]
Activity (Percent Increase Proliferation of hFDPCs (%)): D (increased proliferation of hFDPCs equals to or larger than 8%)

Cc1ccsc1C(=O)NC(C)C [VI-2, 3-methyl-N-propan-2-ylthiophene-2-carboxamide]
Activity (Percent Increase Proliferation of hFDPCs (%)): B (increased proliferation of hFDPCs equals to or larger than 1% and less than 4%)

CNC(=O)C(CC(C)C)NC(=O)c1sccc1OC (stereo not shown) [VI-3, 3-methoxy-N-[4-methyl-1-(methylamino)-1-oxopentan-2-yl]thiophene-2-carboxamide]
Activity (Percent Increase Proliferation of hFDPCs (%)): D (increased proliferation of hFDPCs equals to or larger than 8%)

CCN1C(=S)N(C)NC1(C)C [VII-1, 4-ethyl-2,5,5-trimethyl-1,2,4-triazolidine-3-thione]
Activity (Percent Increase Proliferation of hFDPCs (%)): D (increased proliferation of hFDPCs equals to or larger than 8%)

NN1CCNCC1 [VII-2, piperazin-1-amine]
Activity (Percent Increase Proliferation of hFDPCs (%)): D (increased proliferation of hFDPCs equals to or larger than 8%)

NC1CSCC1O (stereo not shown) [VII-3, 4-aminothiolan-3-ol]
Activity (Percent Increase Proliferation of hFDPCs (%)): D (increased proliferation of hFDPCs equals to or larger than 8%)

NC12CN3CN(CN(C3)C1)C2 [VII-4, 1,3,5-triazatricyclo[3.3.1.13,7]decan-7-amine]
Activity (Percent Increase Proliferation of hFDPCs (%)): D (increased proliferation of hFDPCs equals to or larger than 8%)

CC1=NN(C=O)C(C)(C)C1 [VII-5, 3,5,5-trimethyl-4H-pyrazole-1-carbaldehyde]
Activity (Percent Increase Proliferation of hFDPCs (%)): D (increased proliferation of hFDPCs equals to or larger than 8%)

CCOC(OCC)OCC [VII-6, diethoxymethoxyethane]
Activity (Percent Increase Proliferation of hFDPCs (%)): D (increased proliferation of hFDPCs equals to or larger than 8%)

O[C@H]1CCNC[C@]12CCCNC2 [VII-7, (5S,6R)-2,8-diazaspiro[5.5]undecan-5-ol]
Activity (Percent Increase Proliferation of hFDPCs (%)): D (increased proliferation of hFDPCs equals to or larger than 8%)

CC1CNCCN1 (stereo not shown) [VII-8, 2-methylpiperazine]
Activity (Percent Increase Proliferation of hFDPCs (%)): D (increased proliferation of hFDPCs equals to or larger than 8%)

CN1CCCNS1(=O)=O [VII-9, 2-methyl-1,2,6-thiadiazinane 1,1-dioxide]
Activity (Percent Increase Proliferation of hFDPCs (%)): D (increased proliferation of hFDPCs equals to or larger than 8%)

CN(C)CN(C)C [VII-11, N,N,N′,N′-tetramethylmethanediamine]
Activity (Percent Increase Proliferation of hFDPCs (%)): D (increased proliferation of hFDPCs equals to or larger than 8%)

Cc1c(Br)c([N+](=O)[O-])nn1CC(=O)N1CCCCCC1 [VII-12, 1-(azepan-1-yl)-2-(4-bromo-5-methyl-3-nitropyrazol-1-yl)ethanone]
Activity (Percent Increase Proliferation of hFDPCs (%)): C (increased proliferation of hFDPCs equals to or larger than 4% and less than 8%)

COc1cc(OC)nc(OC)n1 [VII-14, 2,4,6-trimethoxypyrimidine]
Activity (Percent Increase Proliferation of hFDPCs (%)): B (increased proliferation of hFDPCs equals to or larger than 1% and less than 4%)

CC(N)c1nnnn1C (stereo not shown) [VII-15, 1-(1-methyltetrazol-5-yl)ethanamine]
Activity (Percent Increase Proliferation of hFDPCs (%)): D (increased proliferation of hFDPCs equals to or larger than 8%)

CN(C)c1ccccc1CN1CCCCC1C(=O)O (stereo not shown) [VII-16, 1-[[2-(dimethylamino)phenyl]methyl]piperidine-2-carboxylic acid]
Activity (Percent Increase Proliferation of hFDPCs (%)): D (increased proliferation of hFDPCs equals to or larger than 8%)

CC1(C)CC(C(N)=O)C(C)(C)N1 (stereo not shown) [VII-17, 2,2,5,5-tetramethylpyrrolidine-3-carboxamide]
Activity (Percent Increase Proliferation of hFDPCs (%)): D (increased proliferation of hFDPCs equals to or larger than 8%)

NC(=O)C1CCCc2ccccc2N1 (stereo not shown) [VII-18, 2,3,4,5-tetrahydro-1H-1-benzazepine-2-carboxamide]
Activity (Percent Increase Proliferation of hFDPCs (%)): D (increased proliferation of hFDPCs equals to or larger than 8%)
